One compound from US7407794B2, “Biological control of plant diseases” (The Horticulture and Food Research Institute of New Zealand …, priority 2001, dated 2008) can be followed below.

For this experiment, the system named is Botrytis cinerea. Nature of the experiment: Necrotic leaf disc bioassay with interrupted wet period (laboratory). In kind it is cell-based. The settings on record: Table 2, necrotic kiwifruit leaf tissues, repeat bioassay. The method, then: Discs (dia. 21 mm) were cut from mature unsprayed grape or kiwifruit leaves selected at random and placed between sheets of cardboard. The discs were gently dried at 40° C. for approximately 9 hours and then washed under running water for 10 minutes to remove any soluble nutrients. The leaf discs were then blot dried once more on sterile paper towels, dried at 40° C. for 6 hours, then sealed in plastic specimen jars, prior to sterilization by gamma-irradiation (4Mrad).
Isolates were maintained on oatmeal agar (30 g finely ground oatmeal plus 20 g agar per litre of water) and incubated for 2 to 4 weeks at 20° C. illuminated according to a 12 hours day/night cycle. Fungal propagules were washed from the sporulating agar plates using sterile 0.01% (v/v) TWEEN®80 (polyoxyethylenesorbitan monooleate) in distilled water. […]
High humidity incubation was interrupted by transferring the leaf disks from the humidity chambers to open petri dishes containing 2 layers of sterile dry (Whatman) filter disks. […] The area of leaf disk tissue with B. cinerea sporulation was assessed visually. […]
Prior to analysis of variance, all data were arcsin transformed using an angular transformation to stabilise the variance and LSD values were calculated for purposes of mean separation […]

As for `CC(C)NC(=O)N1CC(=O)N(c2cc(Cl)cc(Cl)c2)C1=O` [iprodione], the “% coverage of necrotic leaf tissue by B. cinerea conidiophores” value is given as 20% and the “Antagonist efficacy, percentage reduction of B. cinerea conidiophores compared to the B. cinerea control treatment” value came out at 20%.
